Consider one substance from patent US4550186A, “Binuclear copper (II) carboxylates formed from amine-carboxyboranes” (Duke University, priority 1983, dated 1985).

Experiment [1] deals with purine de novo synthesis of Ehrlich ascites cells. As to the kind of experiment: In vivo formate incorporation into purines. Also noted: species or system mouse. As to the method: (§1) CF1 male mice (~30 g) were implanted with 2×10^6 Ehrlich ascites tumor cells, intraperitoneally on Day 0. Compound I was suspended by homogenation in 0.05% polysorbate.80-water and administered intraperitoneally at 10 and 20 mg/kg for 9 days to determine its effectiveness for inhibition of tumor growth. Mice were sacrificed on Day 10, and the ascites fluid was collected from the peritoneal cavity. The volume and ascrit (packed cell volume) were determined for each animal and the percent inhibition of tumor growth was calculated. For the metabolic studies, mice were treated on Days 8 and 9 with 10 mg/kg of Compound I, intraperitoneally. […]
(§2) Carbamyl phosphate synthetase activity was determined using the reaction medium of Kalman et al [Am. […] Citrulline formed from ornithine was measured at 490 nm by the method of Archibald [J. Biol. Chem., 156, 121 (1944)]. […] The ^14 CO2 generated in 15 min was trapped in 1M KOH and counted. Thymidylate synthetase activity was determined using a post-mitochondrial supernatant (9000 g×10 min) and 5 μCi of 5-^3 H-deoxyuridine monophosphate (14 Ci/mmol) according to the method of Kampf et al [ J. Med. Chem., 19, 903 (1976)]. ^14 C-Formate incorporation into purines was determined by the method of Spassova et al [Biochem. Pharmacol., 25, 923 (1976)] using 0.5 μCi of ^14 C-formic acid (52.0 mCi/mmol). […] The Rf value for xanthine monophosphate was scraped and counted. […]

Experiment [2] has as its target T1, carbamyl phosphate synthetase (Mus musculus, UniProt B2RQC6).
T1 construct: CPSase II domain of CAD; ornithine transcarbamylase used as coupling enzyme
Description: In vitro carbamyl phosphate synthetase activity. Format: biochemical. As to conditions: 0.25 to 1.0 mM. As to the method: as §1, §2

Experiment [3] concerns the target T2, messenger ribonucleic acid polymerase (Mus musculus, UniProt P08775+Q8CFI7).
T2 construct: enzymes isolated from nuclei; endogenous in cells; host or cells: Ehrlich ascites tumor cell nuclei, ammonium sulfate fraction
As to the kind of experiment: In vitro messenger ribonucleic acid polymerase activity. Format: biochemical. The conditions noted are these: 0.25 to 1.0 mM. As to the method: CF1 male mice (~30 g) were implanted with 2×10^6 Ehrlich ascites tumor cells, intraperitoneally on Day 0. Compound I was suspended by homogenation in 0.05% polysorbate.80-water and administered intraperitoneally at 10 and 20 mg/kg for 9 days to determine its effectiveness for inhibition of tumor growth. Mice were sacrificed on Day 10, and the ascites fluid was collected from the peritoneal cavity. The volume and ascrit (packed cell volume) were determined for each animal and the percent inhibition of tumor growth was calculated. For the metabolic studies, mice were treated on Days 8 and 9 with 10 mg/kg of Compound I, intraperitoneally. The animal was sacrificed on Day 10 and the ascites fluid harvested. The in vitro metabolic studies were performed at […] final concentration of Compound I.
In vitro and in vivo nuclear deoxyribonucleic acid polymerase activity was determined on isolated Ehrlich ascites cell nuclei. The incubation was that described by Sawada et al [Can. Res., 34, 3341 (1974)] except that [methyl-^3 H] deoxythymidine triphosphate (82.4 Ci/mmol) was used. The acid insoluble nucleic acid was collected on GF/F filters and counted. Nuclear ribonucleic acid polymerase activities were determined on enzymes isolated from nuclei. […] The acid insoluble ribonucleic acid was collected on nitrocellulose filters and counted.

T1 sequence (B2RQC6 2-2225): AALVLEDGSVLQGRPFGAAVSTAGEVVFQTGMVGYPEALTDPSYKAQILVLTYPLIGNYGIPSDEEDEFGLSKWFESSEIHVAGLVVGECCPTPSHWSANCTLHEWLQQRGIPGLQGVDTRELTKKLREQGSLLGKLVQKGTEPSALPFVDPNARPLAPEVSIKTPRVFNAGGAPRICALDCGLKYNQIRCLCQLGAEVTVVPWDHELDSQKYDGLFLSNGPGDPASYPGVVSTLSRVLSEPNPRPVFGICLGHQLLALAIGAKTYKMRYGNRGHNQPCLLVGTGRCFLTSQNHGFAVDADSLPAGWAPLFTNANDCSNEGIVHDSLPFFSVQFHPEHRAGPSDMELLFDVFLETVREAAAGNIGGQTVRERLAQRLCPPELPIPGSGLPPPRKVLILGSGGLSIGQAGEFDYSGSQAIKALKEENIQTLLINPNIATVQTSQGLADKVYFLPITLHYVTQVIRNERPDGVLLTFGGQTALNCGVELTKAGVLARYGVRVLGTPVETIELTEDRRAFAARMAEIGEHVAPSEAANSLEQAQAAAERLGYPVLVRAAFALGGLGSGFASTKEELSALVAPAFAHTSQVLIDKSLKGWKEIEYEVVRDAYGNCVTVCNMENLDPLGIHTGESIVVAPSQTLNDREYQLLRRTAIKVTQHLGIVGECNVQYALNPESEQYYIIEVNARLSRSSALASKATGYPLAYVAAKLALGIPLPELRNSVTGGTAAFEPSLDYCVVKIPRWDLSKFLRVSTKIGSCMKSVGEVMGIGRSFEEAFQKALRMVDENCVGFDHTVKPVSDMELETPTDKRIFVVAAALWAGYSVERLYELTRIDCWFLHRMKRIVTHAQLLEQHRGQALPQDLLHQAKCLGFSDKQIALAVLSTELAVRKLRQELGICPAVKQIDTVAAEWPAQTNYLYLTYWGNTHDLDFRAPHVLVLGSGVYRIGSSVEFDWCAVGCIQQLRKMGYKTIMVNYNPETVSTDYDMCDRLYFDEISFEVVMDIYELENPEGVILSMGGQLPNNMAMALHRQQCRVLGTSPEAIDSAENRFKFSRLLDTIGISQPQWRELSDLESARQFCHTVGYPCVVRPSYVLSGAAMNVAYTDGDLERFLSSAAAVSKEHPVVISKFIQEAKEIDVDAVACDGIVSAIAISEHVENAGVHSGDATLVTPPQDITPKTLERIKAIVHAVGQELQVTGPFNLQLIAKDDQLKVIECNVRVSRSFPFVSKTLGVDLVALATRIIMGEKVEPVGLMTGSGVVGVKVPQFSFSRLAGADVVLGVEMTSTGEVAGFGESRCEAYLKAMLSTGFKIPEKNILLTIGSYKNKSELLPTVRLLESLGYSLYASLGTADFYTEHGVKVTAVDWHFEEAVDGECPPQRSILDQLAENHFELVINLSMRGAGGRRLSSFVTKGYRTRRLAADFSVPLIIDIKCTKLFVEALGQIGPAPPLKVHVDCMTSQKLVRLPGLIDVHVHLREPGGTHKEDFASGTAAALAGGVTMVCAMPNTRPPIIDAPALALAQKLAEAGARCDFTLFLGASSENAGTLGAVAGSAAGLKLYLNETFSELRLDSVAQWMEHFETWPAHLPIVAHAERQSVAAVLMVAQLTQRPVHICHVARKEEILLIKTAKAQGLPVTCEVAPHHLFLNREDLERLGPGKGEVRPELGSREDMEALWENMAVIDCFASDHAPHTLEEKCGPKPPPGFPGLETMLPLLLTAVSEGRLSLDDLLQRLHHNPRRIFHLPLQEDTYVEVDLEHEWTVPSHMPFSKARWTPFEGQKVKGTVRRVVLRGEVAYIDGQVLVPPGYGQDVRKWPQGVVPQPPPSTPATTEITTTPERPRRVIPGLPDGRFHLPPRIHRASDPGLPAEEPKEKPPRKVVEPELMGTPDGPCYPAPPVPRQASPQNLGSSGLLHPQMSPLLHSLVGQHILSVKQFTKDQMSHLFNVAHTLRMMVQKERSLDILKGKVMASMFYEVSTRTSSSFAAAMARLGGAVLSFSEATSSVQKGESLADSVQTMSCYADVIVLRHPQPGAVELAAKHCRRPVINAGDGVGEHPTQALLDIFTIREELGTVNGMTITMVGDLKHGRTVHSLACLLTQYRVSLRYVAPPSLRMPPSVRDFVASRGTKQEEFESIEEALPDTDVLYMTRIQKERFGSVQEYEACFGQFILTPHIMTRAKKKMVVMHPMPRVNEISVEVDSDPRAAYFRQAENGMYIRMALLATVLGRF

For the substance “{Cu[(CH3)3 N.BH2 CO2 ]2.(CH3)3 N.BH2 COOH} [Compound I]”, the “14C-Formate incorporation into purines” value in experiment [1] (10 mg/kg/day I.P. on Days 8 and 9) is listed as 59 ± 6 % Control. In addition, the “Purine de novo synthesis inhibited” value in experiment [1] (10 day Ehrlich ascites cells) is listed as 41%. In addition, in experiment [2], the “carbamyl phosphate synthetase inhibition” value was “not inhibited”. In experiment [3], the “messenger ribonucleic acid polymerase inhibition” value is “not inhibited”.
